# According to patent publication US8334315B2, “Substituted aromatic carboxamide and urea derivatives as vanilloid receptor ligands” (Gruenenthal GmbH, priority 2009, dated 2012):
# Target: T1, hVR1 (Homo sapiens, UniProt Q8NER1)
# T1 construct: expressed in transfected cells; host or cells: CHO K1 cells (ECACC), stably transfected
# Experiment: Functional test on VR1, FLIPR Ca2+ influx in transfected CHO K1 cells, capsaicin
# Assay type: cell-based, human being
# Set-up: key to Ki (human being) [nM] Cap: agonist / partial agonist / no effect: AG=agonist; pAG=partial agonist; NE=no effect
# Conditions: not given
# Text: In the process, the Ca^2+ influx is quantified in the FLIPR assay with the aid of a Ca^2+-sensitive dye (type Fluo-4, Molecular Probes Europe BV, Leiden, the Netherlands) in a fluorescent imaging plate reader (FLIPR, Molecular Devices, Sunnyvale, USA), as described hereinafter.
# II. Functional Tests Carried Out on the Vanilloid Receptor (VR1)
# The agonistic or antagonistic effect of the substances to be tested on the vanilloid receptor 1 (VR1) can also be determined using the following assay. In this assay, the influx of Ca^2+ through the channel is quantified with the aid of a Ca^2+-sensitive dye (type Fluo-4, Molecular Probes Europe BV, Leiden, the Netherlands) in a fluorescent imaging plate reader (FLIPR, Molecular Devices, Sunnyvale, USA).
# Chinese hamster ovary cells (CHO K1 cells, European Collection of Cell Cultures (ECACC) United Kingdom) are stably transfected with the VR1 gene. For functional testing, these cells are plated out on poly-D-lysine-coated black 96-well plates having a clear base (BD Biosciences, Heidelberg, Germany) at a density of 25,000 cells/well. The cells are incubated overnight at 37° C. and 5% CO2 in a culture medium (Ham's F12 nutrient mixture, 10% by volume of FCS (foetal calf serum), 18 μg/ml of L-proline). The next day the cells are incubated with Fluo-4 (Fluo-4 2 μM, 0.01% by volume of Pluronic F127, Molecular Probes in HBSS (Hank's buffered saline solution), Gibco Invitrogen GmbH, Karlsruhe, Germany) for 30 minutes at 37° C. Subsequently, the plates are washed three times with HBSS buffer and after further incubation for 15 minutes at RT used for Ca^2+ measurement in a FLIPR assay. The Ca^2+-dependent fluorescence is measured before and after the addition of the substances to be tested (λex wavelength=488 nm, λem=540 nm). Quantification is carried out by measuring the highest fluorescence intensity (FC, fluorescence counts) over time.
# The FLIPR protocol consists of 2 substance additions. First the compounds to be tested (10 μM) are pipetted onto the cells and the Ca^2+ influx is compared with the control (capsaicin 10 μM) (% activation based on the Ca^2+ signal after the addition of 10 μM of capsaicin). After 5 minutes' incubation, 100 nM of capsaicin are applied and the Ca^2+ influx is also determined.
# Desensitising agonists and antagonists led to suppression of the Ca^2+ influx. The % inhibition is calculated compared to the maximum achievable inhibition with 10 μM of capsaicin.
# Starting from the percentage displacement caused by different concentrations of the compounds to be tested of general formula I, IC50 inhibitory concentrations which cause a 50-per cent displacement of capsaicin were calculated. Ki values for the test substances were obtained by conversion by means of the Cheng-Prusoff equation (Cheng, Prusoff; Biochem. Pharmacol. 22, 3099-3108, 1973).
# The affinity of the compounds according to the invention for the vanilloid receptor 1 (VR1/TRPV1 receptor) was determined as described hereinbefore (pharmacological methods I and II respectively).
# T1 sequence (Q8NER1 whole entry): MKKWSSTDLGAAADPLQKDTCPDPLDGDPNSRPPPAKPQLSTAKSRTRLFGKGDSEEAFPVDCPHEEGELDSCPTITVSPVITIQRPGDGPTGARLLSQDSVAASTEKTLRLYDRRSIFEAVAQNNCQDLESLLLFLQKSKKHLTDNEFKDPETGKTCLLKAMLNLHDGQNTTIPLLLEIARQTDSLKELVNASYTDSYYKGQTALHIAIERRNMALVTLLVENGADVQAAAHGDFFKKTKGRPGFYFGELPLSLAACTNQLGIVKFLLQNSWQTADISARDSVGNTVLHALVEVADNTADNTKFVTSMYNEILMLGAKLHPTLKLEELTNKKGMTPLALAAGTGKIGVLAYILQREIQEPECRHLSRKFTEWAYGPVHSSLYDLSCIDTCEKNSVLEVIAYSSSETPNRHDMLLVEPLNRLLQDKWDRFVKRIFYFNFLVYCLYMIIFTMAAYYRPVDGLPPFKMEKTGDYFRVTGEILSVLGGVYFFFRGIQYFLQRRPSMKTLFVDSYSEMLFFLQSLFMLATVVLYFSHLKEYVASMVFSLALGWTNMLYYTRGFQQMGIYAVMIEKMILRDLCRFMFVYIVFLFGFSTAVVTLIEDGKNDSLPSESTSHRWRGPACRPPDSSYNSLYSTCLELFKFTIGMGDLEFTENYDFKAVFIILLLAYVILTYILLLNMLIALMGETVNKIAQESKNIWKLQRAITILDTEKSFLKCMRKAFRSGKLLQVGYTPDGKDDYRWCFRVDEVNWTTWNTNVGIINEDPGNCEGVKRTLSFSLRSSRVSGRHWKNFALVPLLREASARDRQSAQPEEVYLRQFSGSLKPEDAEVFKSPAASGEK
row,Structure (SMILES),Ki (human being) [nM] Cap: agonist / partial agonist / no effect
1,"CC(C(=O)NCc1cc(C(F)(F)F)nn1-c1cccc(Cl)c1)c1ccc2nc(N)sc2c1 (stereo not shown) [Example 43, 2-(2-aminobenzo[d]thiazol-6-yl)-N-((1-(3-chlorophenyl)-3-(trifluoromethyl)-1H-pyrazol-5-yl)methyl)propanamide]",pAG
2,"CC(C)(C)c1cc(CNC(=O)Nc2cccc3c2CCC3)n(-c2cccc(Cl)c2)n1 [Example 78, 1-((3-tert-butyl-1-(3-chlorophenyl)-1H-pyrazol-5-yl)methyl)-3-(2,3-dihydro-1H-inden-4-yl)urea]",pAG
3,"CC(C)(C)c1cc(CNC(=O)Nc2cccc3c2OCC3)n(-c2cccc(Cl)c2)n1 [Example 185, 1-((3-tert-butyl-1-(3-chlorophenyl)-1H-pyrazol-5-yl)methyl)-3-(2,3-dihydrobenzofuran-7-yl)urea]",pAG
4,"CC(C)(C)c1cc(CNC(=O)Nc2ccc3c(c2)OC(F)(F)O3)n(-c2cccc(Cl)c2)n1 [Example 187, 1-((3-tert-butyl-1-(3-chlorophenyl)-1H-pyrazol-5-yl)methyl)-3-(2,2-difluorobenzo[d][1,3]dioxol-5-yl)urea]",AG

# Same assay, conditions: capsaicin (Cap); includes values given in brackets after pAG; read-out: Ki (human being) [nM] Cap
row,Structure (SMILES),Ki
1,"CC(C(=O)NCc1cc(C(F)(F)F)nn1-c1cccc(Cl)c1)c1cccc2c1CCCC2 (stereo not shown) [Example 2, N-((1-(3-chlorophenyl)-3-(trifluoromethyl)-1H-pyrazol-5-yl)methyl)-2-(5,6,7,8-tetrahydronaphthalen-1-yl)propanamide]",6.6 nM
2,"CC(C(=O)NCc1cc(C(F)(F)F)nn1-c1cccc(Cl)c1)c1ccc2c(c1)C(=O)CC2 (stereo not shown) [Example 6, N-((1-(3-chlorophenyl)-3-(trifluoromethyl)-1H-pyrazol-5-yl)methyl)-2-(3-oxo-2,3-dihydro-1H-inden-5-yl)propanamide]",12.8 nM
3,"CC(C(=O)NCc1cc(C(C)(C)C)nn1-c1cccc(Cl)c1)c1cccc2[nH]ccc12 (stereo not shown) [Example 25, N-((3-tert-butyl-1-(3-chlorophenyl)-1H-pyrazol-5-yl)methyl)-2-(1H-indol-4-yl)propanamide]",5.5 nM
4,"CC(C(=O)NCc1cc(C(F)(F)F)nn1-c1cccc(Cl)c1)c1cccc2c1ccn2C (stereo not shown) [Example 26, N-((1-(3-chlorophenyl)-3-(trifluoromethyl)-1H-pyrazol-5-yl)methyl)-2-(1-methyl-1H-indol-4-yl)propanamide]",21.5 nM
5,"CC(C(=O)NCc1cc(C(F)(F)F)nn1-c1cccc(Cl)c1)c1ccc2ncsc2c1 (stereo not shown) [Example 42, 2-(benzo[d]thiazol-6-yl)-N-((1-(3-chlorophenyl)-3-(trifluoromethyl)-1H-pyrazol-5-yl)methyl)propanamide]",4 nM
6,"CC(C(=O)NCc1cc(C(F)(F)F)nn1-c1cccc(Cl)c1)c1ccc2nc(N)sc2c1 (stereo not shown) [Example 43, 2-(2-aminobenzo[d]thiazol-6-yl)-N-((1-(3-chlorophenyl)-3-(trifluoromethyl)-1H-pyrazol-5-yl)methyl)propanamide]",22.9 nM
7,"Cc1cc2c(C(C)C(=O)NCc3cc(C(F)(F)F)nn3-c3cccc(Cl)c3)cccc2c(C)n1 (stereo not shown) [Example 67, N-((1-(3-chlorophenyl)-3-(trifluoromethyl)-1H-pyrazol-5-yl)methyl)-2-(1,3-dimethylisoquinolin-5-yl)propanamide]",5.2 nM
8,"CC(C(=O)NCc1cc(C(F)(F)F)nn1-c1cccc(Cl)c1)c1ccc2cccnc2c1 (stereo not shown) [Example 72, N-((1-(3-chlorophenyl)-3-(trifluoromethyl)-1H-pyrazol-5-yl)methyl)-2-(quinolin-7-yl)propanamide]",0.5 nM
9,"CC(C)(C)c1cc(CNC(=O)Nc2cccc3c2CCC3)n(-c2cccc(Cl)c2)n1 [Example 78, 1-((3-tert-butyl-1-(3-chlorophenyl)-1H-pyrazol-5-yl)methyl)-3-(2,3-dihydro-1H-inden-4-yl)urea]",2.4 nM
10,"CC(C)(C)c1cc(CNC(=O)Nc2cccc3ccncc23)n(-c2cccc(Cl)c2)n1 [Example 108, 1-((3-tert-butyl-1-(3-chlorophenyl)-1H-pyrazol-5-yl)methyl)-3-(isoquinolin-8-yl)urea]",0.5 nM
11,"O=C(NCc1cc(C(F)(F)F)nn1-c1ccc(Cl)cc1)Nc1ccc2c(c1)CCC2 [Example 174, 1-((1-(4-chlorophenyl)-3-(trifluoromethyl)-1H-pyrazol-5-yl)methyl)-3-(2,3-dihydro-1H-inden-5-yl)urea]",75.8 nM
12,"O=C(NCc1cc(C(F)(F)F)nn1-c1ccc(F)cc1)Nc1ccc2c(c1)CCC2 [Example 175, 1-(2,3-dihydro-1H-inden-5-yl)-3-((1-(4-fluorophenyl)-3-(trifluoromethyl)-1H-pyrazol-5-yl)methyl)urea]",70.2 nM
13,"CC(C)(C)c1cc(CNC(=O)Nc2ccc3c(c2)CCC3)n(-c2cccc(F)c2)n1 [Example 176, 1-((3-tert-butyl-1-(3-fluorophenyl)-1H-pyrazol-5-yl)methyl)-3-(2,3-dihydro-1H-inden-5-yl)urea]",34 nM
14,"CC(C)(C)c1cc(CNC(=O)Nc2ccc3c(c2)CCC3)n(-c2ccc(F)c(Cl)c2)n1 [Example 177, 1-((3-tert-butyl-1-(3-chloro-4-fluorophenyl)-1H-pyrazol-5-yl)methyl)-3-(2,3-dihydro-1H-inden-5-yl)urea]",10.3 nM
15,"COc1ccc(-n2nc(C(F)(F)F)cc2CNC(=O)Nc2ccc3c(c2)CCC3)cc1 [Example 178, 1-(2,3-dihydro-1H-inden-5-yl)-3-((1-(4-methoxyphenyl)-3-(trifluoromethyl)-1H-pyrazol-5-yl)methyl)urea]",38.4 nM
16,"O=C(NCc1cc(C(F)(F)F)nn1-c1ccc(C(F)(F)F)cc1)Nc1ccc2c(c1)CCC2 [Example 179, 1-(2,3-dihydro-1H-inden-5-yl)-3-((3-(trifluoromethyl)-1-(4-(trifluoromethyl)phenyl)-1H-pyrazol-5-yl)methyl)urea]",36.3 nM
17,"O=C(NCc1cc(C(F)(F)F)nn1-c1ccc(OC(F)(F)F)cc1)Nc1ccc2c(c1)CCC2 [Example 180, 1-(2,3-dihydro-1H-inden-5-yl)-3-((1-(4-(trifluoromethoxy)phenyl)-3-(trifluoromethyl)-1H-pyrazol-5-yl)methyl)urea]",41 nM
18,"Cc1ccc(-n2nc(C(F)(F)F)cc2CNC(=O)Nc2ccc3c(c2)CCC3)cc1C [Example 181, 1-(2,3-dihydro-1H-inden-5-yl)-3-((1-(3,4-dimethylphenyl)-3-(trifluoromethyl)-1H-pyrazol-5-yl)methyl)urea]",35.9 nM
19,"CC(C)(C)c1cc(CNC(=O)Nc2ccc3c(c2)CCC3)n(-c2cc(Cl)cc(Cl)c2)n1 [Example 182, 1-((3-tert-butyl-1-(3,5-dichlorophenyl)-1H-pyrazol-5-yl)methyl)-3-(2,3-dihydro-1H-inden-5-yl)urea]",32.8 nM
20,"CC(C(=O)NCc1cc(C2CC2)nn1-c1cccc(Cl)c1)c1ccc2c(c1)OCO2 (stereo not shown) [Example 183, 2-(benzo[d][1,3]dioxol-5-yl)-N-((1-(3-chlorophenyl)-3-cyclopropyl-1H-pyrazol-5-yl)methyl)propanamide]",28.4 nM
21,"CC(C(=O)NCc1cc(C(F)(F)F)nn1C1CCCCC1)c1ccc2c(c1)OCCO2 (stereo not shown) [Example 184, N-((1-cyclohexyl-3-(trifluoromethyl)-1H-pyrazol-5-yl)methyl)-2-(2,3-dihydrobenzo[b][1,4]dioxin-6-yl)propanamide]",66.2 nM
22,"CC(C)(C)c1cc(CNC(=O)Nc2cccc3c2OCC3)n(-c2cccc(Cl)c2)n1 [Example 185, 1-((3-tert-butyl-1-(3-chlorophenyl)-1H-pyrazol-5-yl)methyl)-3-(2,3-dihydrobenzofuran-7-yl)urea]",39.7 nM
23,"CC(C)(C)c1cc(CNC(=O)Cc2ccc3c(c2)OCCO3)n(-c2cccc(Cl)c2)n1 [Example 188, N-((3-tert-butyl-1-(3-chlorophenyl)-1H-pyrazol-5-yl)methyl)-2-(2,3-dihydrobenzo[b][1,4]dioxin-6-yl)acetamide]",5.9 nM
24,"CC(C(=O)NCc1cc(C(F)(F)F)nn1-c1cccc(Cl)c1)c1ccc2c(c1)CCC(C)(C)O2 (stereo not shown) [Example 189, N-((1-(3-chlorophenyl)-3-(trifluoromethyl)-1H-pyrazol-5-yl)methyl)-2-(2,2-dimethylchroman-6-yl)propanamide]",41.2 nM
